In patent US7071197B2, “N,N-disubstituted diazocycloalkanes” (Recordati S.A., priority 2002, dated 2006):

Key:
human α1d-adrenoceptor = target: T1, human α1d-adrenoceptor (Homo sapiens, UniProt P25100); test: [3H]prazosin binding to cloned human α1-adrenoceptor subtypes (α1d); conditions: for Ki: [3H]prazosin, CHO cell membranes, read-out: Binding affinity (Ki, nM) α1d; for α1d/S-HT1A: selectivity: ratio of Ki at α1d and Ki at 5-HT1A
T1 construct: expressed in transfected cells
T1 sequence (P25100 1-572): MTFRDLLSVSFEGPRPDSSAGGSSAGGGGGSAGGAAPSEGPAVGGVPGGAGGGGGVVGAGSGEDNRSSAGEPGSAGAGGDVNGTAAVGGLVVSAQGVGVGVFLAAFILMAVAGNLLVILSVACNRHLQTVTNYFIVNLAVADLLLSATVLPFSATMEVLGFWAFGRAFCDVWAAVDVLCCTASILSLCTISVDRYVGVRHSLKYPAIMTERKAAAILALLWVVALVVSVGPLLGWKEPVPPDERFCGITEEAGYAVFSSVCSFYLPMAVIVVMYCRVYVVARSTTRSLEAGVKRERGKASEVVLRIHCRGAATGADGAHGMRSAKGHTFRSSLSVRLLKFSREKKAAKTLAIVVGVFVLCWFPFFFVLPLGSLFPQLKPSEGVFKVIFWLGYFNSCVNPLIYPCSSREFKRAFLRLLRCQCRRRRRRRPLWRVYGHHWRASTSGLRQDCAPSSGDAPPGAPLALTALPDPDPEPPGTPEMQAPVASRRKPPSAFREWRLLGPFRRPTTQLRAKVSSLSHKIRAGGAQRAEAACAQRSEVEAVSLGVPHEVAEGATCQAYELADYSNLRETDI
Procedure: Binding to cloned human α1-adrenoceptor subtypes was performed in membranes from CHO cells (chinese hamster ovary cells) transfected by electroporation with DNA expressing the gene encoding each α1-adrenoceptor subtype. Cloning and stable expression of the human α1-adrenoceptor gene was performed as previously described (Testa et al. Pharmacol. Comm., 6: 79–86,1995).
CHO cells were grown in suspension in Iscove's modified Dulbecco's medium, supplemented with 10% fetal calf serum and gentamicin (50 μg/ml), at 37° C. in 7% CO2 in an humidified incubator. Cells were collected by centrifugation, lised in ice-cold Tris 5 mM and EDTA 5 mM buffer (pH 7.4) and gently homogenised. Homogenates were centrifuged at 40000×g×20 min and pellets were resuspended in a small volume of ice-cold Tris 5 mM and EDTA 5 mM buffer (pH 7.4) and immediately frozen and stored at −80° C. until use.
CHO cell membranes were resuspended and incubated in 50 mM Tris, pH 7.4, with 0.2 nM [^3H]prazosin, in a final volume of 1.02 ml for 30 min at 25° C., in absence or presence of competing drugs. Non-specific binding was determined in the presence of 10 μM phentolamine. The incubation was stopped by rapid filtration through 0.2% polyethyleneimine pretreated Schleicher & Schuell GF52 filters using a Tomtec (PerkinElmer) cell harvester. The filters were washed with 3×1 ml of ice-cold Tris buffer, dried and the radioactivity was measured in a Betaplate (Wallac) liquid scintillation counter.
The inhibition of specific binding by the compounds was analysed to estimate the IC50 value by the non-linear curve-fitting program Allfit (De Lean et al. Am. J. Physiol. 235, E97-E102, 1978). The IC50 value is converted to an affinity constant (Ki) by the equation of Cheng & Prusoff (Biochem. Pharmacol. 22: 3099–3108, 1973).

[1] = test system: rhythmic bladder-voiding contractions in anaesthetised rats; test: Rhythmic bladder-voiding contractions induced by bladder filling in anaesthetised rats; assay type: in vivo, rat; conditions: for ED50: Rattus norvegicus, read-out: ED50 (frequency) (extrapolated dose inducing a reduction of the number of contractions > 30% in 50% of treated rats); for ED50 / ED10 min (extrapolated dose inducing 10 minutes of disappearance of the contractions): intravenous administration, anaesthetised rats; for time of disappearance of bladder contractions: after administration of 0.3 mg/kg
Procedure: Female Sprague-Dawley rats weighing 225–275 g (Crl: CD® (SD) IGS BR, Charles River Italia) were used. The animals were housed with free access to food and water and maintained on a forced 12-hour alternating light-dark cycle at 22–24° C. for at least one week, except during the experiment. The activity on rhythmic bladder voiding contractions was evaluated according to the method of Dray (Dray J., Pharmacol. Methods, 13:157, 1985), with some modifications as in Guarneri (Guarneri, Pharmacol. Res. 27:173, 1993). Briefly, the rats were anaesthetised by subcutaneous injection of 1.25 g/kg (5 ml/kg) urethane, after which the urinary bladder was catheterised via the urethra using PE 50 polyethylene tubing filled with physiological saline. The catheter was tied in place with a ligature around the external urethral orifice and was connected to conventional pressure transducers (Statham P23 ID/P23 XL). […] The bladder was then filled via the recording catheter by incremental volumes of warm (37° C.) saline until reflex bladder-voiding contractions occurred (usually 0.81.5 ml). For intravenous injection of bioactive compounds, PE 50 polyethylene tubing filled with physiological saline was inserted into the jugular vein.
From the cystometrogram, the number of contractions recorded 15 minutes before (basal values) and after treatment, as well as the mean amplitude of these contractions (mean height of the peaks in mmHg), was evaluated.
Since most compounds produced an effect that was relatively rapid in onset and led to a complete cessation of bladder contractions, bioactivity was conveniently estimated by measuring the duration of bladder quiescence (i.e., the length of the time during which no contractions occurred). The number of tested animals showing a reduction in the number of contractions higher than 30% of that observed in the basal period was recorded too.
The extrapolated doses which induced a reduction in the number of contractions greater than 30% in 50% of the treated rats (ED50) were evaluated by the method of Bliss (Bliss C. I., Quart J. Pharm. Pharmacol. 11, 192–216, 1938).

Row | Ki (human α1d-adrenoceptor) | α1d/S-HT1A (human α1d-adrenoceptor) | SMILES | ED50 [1] | ED10 min (extrapolated dose inducing 10 minutes of disappearance of the contractions) [1] | time of disappearance of bladder contractions [1] | extrapolated dose inducing 10 minutes of disappearance of the contractions, fold lower than Ex. 5 ([1]; compared with Ex. 5)
1 | 1 nM | 7.7 | COc1ccccc1N1CCN(CC[C@@H](c2ccccc2F)[C@H](O)C2CCCCC2)CC1 (racemic) [Ex. 1, 1-[(SR-RS)-4-cyclohexyl-4-hydroxy-3-(2-fluorophenyl)-butyl]-4-(2-methoxyphenyl)-piperazine] | 0.03 mg/kg | 0.198 mg/kg | – | –
2 | 0.5 nM | 0.8 | COc1ccccc1N1CCN(CC[C@H](c2ccccc2)[C@@H](O)C2CCCCC2)CC1 (racemic) [Ex. 5, 1-[(RS,SR)-4-Cyclohexyl-4-hydroxy-3-phenyl-butyl]-4-(2-methoxyphenyl)-piperazine, reference compound] | 0.018 mg/kg | 0.066 mg/kg | 14 min | –
3 | 1.2 nM | 3.2 | COc1ccccc1N1CCN(CC[C@H](c2ccccc2F)[C@@H](O)C2CCCCC2)CC1 [Ex. 1Y, 1-[(3R,4S)-4-cyclohexyl-4-hydroxy-3-(2-fluorophenyl)-butyl]-4-(2-methoxyphenyl)-piperazine] | 0.015 mg/kg | 0.023 mg/kg | 24 min | at least 2 fold
4 | 0.5 nM | 2.1 | COc1ccccc1N1CCN(CC[C@H](c2ccccc2F)[C@H](O)C2CCCCC2)CC1 [Ex. 2X, 1-[(3R,4R)-4-cyclohexyl-4-hydroxy-3-(2-fluorophenyl)-butyl]-4-(2-methoxyphenyl)-piperazine] | – | – | – | –
